Data as given in patent US11535633B2, “Fused tricyclic heterocycle compounds and therapeutic uses thereof” (Jiangsu Hengrui Medicine Co., Ltd., priority 2018, dated 2022).

target: T1, hSTING c-terminal domain (purified hSTING aa154-342) (Homo sapiens, UniProt Q86WV6); experiment: Thermal shift assay for measuring the relative binding affinity to hSTING c-terminal domain; settings: Tm of sample minus mean Tm of negative control (buffer, 2% DMSO), SYPRO Orange
T1 construct: Purified hSTING (aa154-342)
Method: Test Example 1. Thermal Shift Assay for Measuring the Relative Binding Affinity to hSTING c-Terminal Domain
From each of the 10 mM stock solutions of compounds in DMSO, dilutions are made to create samples with three concentrations 10 mM, 5 mM and 2.5 mM. From these dilutions a final 50 fold dilution is made into assay buffer, giving concentrations of 200 μM, 100 μM, and 50 μM. From each of the buffer dilutions, 5 μL is added to the 384 well assay plate. A positive control is setup with cGAMP using the same dilution scheme as the ligands. A baseline thermal shift for the negative control is determined using buffer and 2% DMSO.
An aliquot of protein is thawed on ice and SYPRO orange reagent is brought to room temperature. The 5000× SYPRO orange stock is diluted in assay buffer to a concentration of 10×. Protein is diluted to a concentration of 10 μM in the prepared buffer/dye solution. Five micro-liters of protein/buffer/dye solution is added to each of the sample and control wells, and the plate is sealed with the provided films. The plate is centrifuged for 5 min at 20° C. at 1000 rpm.
On the Light Cycler instrument, measurements are made over a temperature gradient from 20° C. to 99° C. at 0.07° C./s and data acquisitions collected at a rate of 8/° C. is used to measure the change in fluorescence as a function of temperature. Data analysis is performed using the Roche Light Cycler Software to determine the melting temperature (Tm ° C.) of each sample. A mean Tm ° C. for the negative control is calculated and subtracted from each of the samples to generate the ΔTm ° C. values for each of the ligands.
The relative binding affinity to hSTING c-terminal domain of the compounds of the present invention was determined by the above assay, and ΔTm ° C. values are shown in the following table 1.

T1 sequence (Q86WV6 154-342): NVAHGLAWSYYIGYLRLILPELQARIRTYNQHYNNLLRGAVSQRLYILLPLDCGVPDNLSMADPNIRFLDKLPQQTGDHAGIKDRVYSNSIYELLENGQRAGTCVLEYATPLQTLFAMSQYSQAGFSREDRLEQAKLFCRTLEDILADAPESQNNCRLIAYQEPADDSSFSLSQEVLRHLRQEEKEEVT

| ΔTm at 100 µM | SMILES |
| --- | --- |
| 1 °C | CCn1nc(C)cc1C(=O)Nc1nc2cc(C(N)=O)cc(OC)c2n1CCCCC1COc2cc(C(N)=O)cc3nc(NC(=O)c4cc(C)nn4CC)n1c23 (stereo in doubt) [Example 16, (S)-3-(4-(5-carbamoyl-2-(1-ethyl-3-methyl-1H-pyrazole-5-carboxamido)-7-methoxy-1H-benzo[d]imidazol-1-yl)butyl)-2-(1-ethyl-3-methyl-1H-pyrazole-5-carboxamido)-3,4-dihydro-5-oxa-1,2a-diazaacenaphthylene-7-carboxamide] |
| 1.1 °C | CCn1nc(C)cc1C(=O)Nc1nc2cc(C(N)=O)cc3c2n1CCO3 [Example 2, 2-(1-ethyl-3-methyl-1H-pyrazole-5-carboxamido)-3,4-dihydro-5-oxa-1,2a-diazaacenaphthylene-7-carboxamide] |
| 0.7 °C | CCn1nc(C)cc1C(=O)N(C)c1nc2cc(C(N)=O)cc3c2n1CCO3 [Example 3, 2-(1-ethyl-N,3-dimethyl-1H-pyrazole-5-carboxamido)-3,4-dihydro-5-oxa-1,2a-diazaacenaphthylene-7-carboxamide] |
| 4.6 °C | CCn1nc(C)cc1C(=O)Nc1nc2cc(C(N)=O)cc3c2n1[C@@H](CCCNC(=O)OCc1ccccc1)CO3 [Example 4, (S)-benzyl (3-(7-carbamoyl-2-(1-ethyl-3-methyl-1H-pyrazole-5-carboxamido)-3,4-dihydro-5-oxa-1,2a-diazaacenaphthylen-3-yl)propyl)carbamate] |
| -0.5 °C | C=CC[C@@H]1COc2cc(C(N)=O)cc3nc(NC(=O)c4cc(C)nn4CC)n1c23 [Example 6, (R)-3-allyl-2-(1-ethyl-3-methyl-1H-pyrazole-5-carboxamido)-3,4-dihydro-5-oxa-1,2a-diazaacenaphthylene-7-carboxamide] |
| 5.4 °C | CCC[C@H]1COc2cc(C(N)=O)cc3nc(NC(=O)c4cc(C)nn4CC)n1c23 [Example 7, (S)-2-(1-ethyl-3-methyl-1H-pyrazole-5-carboxamido)-3-propyl-3,4-dihydro-5-oxa-1,2a-diazaacenaphthylene-7-carboxamide] |
| -0.1 °C | CCn1nc(C)cc1C(=O)Nc1nc2cc(C(N)=O)cc3c2n1[C@@H](CC(O)CO)CO3 (stereo partly drawn) [Example 9, (3S)-3-(2,3-dihydroxypropyl)-2-(1-ethyl-3-methyl-1H-pyrazole-5-carboxamido)-3,4-dihydro-5-oxa-1,2a-diazaacenaphthylene-7-carboxamide] |
| 2 °C | CCn1nc(C)cc1C(=O)Nc1nc2cc(C(N)=O)cc(OC)c2n1CCCNCCC1COc2cc(C(N)=O)cc3nc(NC(=O)c4cc(C)nn4CC)n1c23 (centres unmarked) [Example 17, 3-(2-((3-(5-carbamoyl-2-(1-ethyl-3-methyl-1H-pyrazole-5-carboxamido)-7-methoxy-1H-benzo[d]imidazol-1-yl)propyl)amino)ethyl)-2-(1-ethyl-3-methyl-1H-pyrazole-5-carboxamido)-3,4-dihydro-5-oxa-1,2a-diazaacenaphthylene-7-carboxamide] |
